SMILES strings stand for the structures.

These results are taken from patent US11912645B2, “Lipopeptide compounds for the treatment of pain disorders” (INSERM (Institut National de la Santé et de la Recherche …, priority 2017, dated 2024).

One data set concerns Caco-2 cells. Nature of the data set: CXCL8 secretion by Caco-2 cells (ELISA). Type of data set: cell-based, human. The settings on record: 1, 10, 100 μM; 24 hours. The procedure:
FIG. 5: C12-Asn-GABA crosses the epithelial barrier without modifying epithelial cells physiology. Caco-2 cells were cultivated into transwell chambers. After treatment with C12-Asn-GABA (800 ng) at the apical side, C12-Asn-GABA was quantified inside the cells and both the apical and basolateral compartments by LC-MS/MS (A); data are represented as mean±SEM, n=3 experiments of 3 wells per condition. Extracted ion chromatogram at the exact mass of GABA (104.0702 m/z) with a mass accuracy of 5 ppm of the GABA commercial standard (GABA (Std.) and apical and basolateral compartments after loading or not Caco-2 cells with 800 ng of GABA at the apical site (B); representation of one well, n=3 experiments of 3 wells per condition. Paracellular permeability assessed by the passage of FITC-dextran loaded at the apical side (C) and CXCL8 secretion assessed by ELISA (D) were monitored after treatment of Caco-2 cells at the apical side with C12-Asn-GABA (10 μM); data are represented as mean±SEM, n=3 experiments of 3 wells per condition. […]
To assess the effect of C12-Asn-GABA on paracellular permeability, transport of dextran 4 kDa FITC across a Caco-2 cell monolayer was investigated. […] In parallel, the release of CXCL8 from Caco-2 cells into the medium, of both apical and basolateral sides of the transwell, was assessed by ELISA. […]

Data set [1] deals with mouse sensory neurons activated by mix of GPCR agonists (histamine, serotonin, bradykinin). As to the kind of experiment: Calcium flux in sensory neurons activated by mix of GPCR agonists. Particulars: serotonin 10 μM each, pretreatment with increasing amounts of compound. Type of data set: cell-based. The method, then:
FIG. 4: C12-Asn-GABA inhibits neuronal activation via the GABA B receptor. Amplitude of intracellular calcium mobilization (ΔF/F; right panel) in mouse sensory neurons and percentage of responding neurons (left panel) pretreated with increasing amounts of C12-Asn-GABA (black circle) or vehicle (HBSS; white circle) and treated with capsaicin (125 nM; A) or a mix of G protein coupled receptor agonists (histamine, serotonin and bradykinin 10 μM each; B). Data are represented as mean±SEM; n=4 independent experiments of 3 wells per condition and 30-80 neurons per well. […] Percentage of responding neurons pretreated with increasing amounts of saclofen (black circle) or vehicle (HBSS; white circle) and treated with C12-Asn-GABA (10 μM) and capsaicin (125 nM; C) or a mix of G protein coupled receptor agonist (histamine, serotonin and bradykinin 10 μM each; D). Data are represented as mean±SEM; n=4 independent experiments of 3 wells per condition and 30-80 neurons per well.
Male C57B16 mice (6-8 weeks) were used to produce primary cultures of dorsal root ganglia (DRG) sensory neurons for calcium flux experiments, and to perform studies of colorectal distention and intestinal isotonic contraction. All procedures were approved by Institutional Animal Care Committees (CEEA 122). […]
In general terms: Calcium flux is commonly read through the fluorescence of an indicator in the cells.

A further data set deals with duodenal preparations. Nature of the data set: Ex vivo duodenal mechanical contraction (isotonic sensors). Further details: species or system mouse. Particulars: 10 μM, vs control and vehicle. The procedure: FIG. 6: C12-Asn-GABA inhibits capsaicin-induced visceral hypersensitivity without altering Intestinal contraction. Mice received intracolonic administration of C12-Asn-GABA (10 μM; black symbols) or vehicle (40% ethanol; white symbols) and 30 minutes or 4 hours later colon (A) and blood (B) were harvested in order to quantify C12-Asn-GABA by LC-MS/MS. Data are expressed as mean±SEM, n=8 mice per group. […] Mice received intracolonic administration of C12-Asn-GABA (10 μM; black symbols) or vehicle (40% ethanol; white symbols) and 30 minutes or 4 hours later an intracolonic administration of capsaicin (100 μg/mouse; square) or its vehicle (40% ethanol; circle). Fifteen minutes after capsaicin or vehicle treatment, visceromotor response (VMR) to increasing pressures of colorectal distension was performed. Data are expressed as mean±SEM, n=7-8 mice per group. […] Ex vivo measurement of duodenal mechanical contraction frequency (B) and amplitude (C) in response to Krebs-Ringer solution (control; white bar), to DMSO 0.2% (vehicle; gray bar) or to C12-Asn-GABA (10 μM; black bar). Data are expressed as mean±SEM, n=5-6 per group. […]
IBS patients are characterized by diverse alterations of gut transit: diarrhea, constipation or mixed^1, thus a drug impairing bowel motility could limit its putative use in this pathology. We evaluated whether C12-Asn-GABA was capable of impairing duodenal motility. […]

Take `CCCCCCCCCCCC(=O)NC(CC(N)=O)C(=O)NCCCC(=O)O` (stereo not shown) [C12-Asn-GABA, C11 C(O)-Asn-gamma-aminobutyric acid]: the “secretion of CXCL8 (apical and basolateral)” value with Caco-2 cells is “None of the tested doses (1, 10, 100 μM) and neither the vehicle modified the secretion of CXCL8”. Further, the “calcium flux increase induced by mix of GPCR agonists (% responding neurons, amplitude ΔF/F)” value in data set [1] is on record as “prevented by C12-Asn-GABA pretreatment in a dose-dependent manner”. In addition, in the data set with duodenal preparations, the “amplitude of intestinal contractions” value was “nor the amplitude of intestinal contractions” and the “frequency of duodenal contractions” value is given as “impairs neither the frequency of contractions”.
